How the values were obtained:
[1] = target: T1, Human Tryptophan 2,3-dioxygenase (TDO) (Homo sapiens, UniProt P48775); experiment: Human TDO enzymatic assay (kynurenine level); type: biochemical; details: 1 nM TDO, 350 μM L-Trp; geometric mean; read-out: TDO GMean: IC50 (μM) (Biochemical Assay)
T1 construct: His tag (N); made in house; host or cells: E. coli
Procedure: (§1) Human Indoleamine 2,3-dioxygenase (IDO) and Tryptophan 2,3-dioxygenase (TDO) enzymatic assay
(§2) Human IDO or TDO with N-terminal His tag is purified in E. coli. The IDO enzymatic assay is performed using 6 nM IDO and 10 μM L-Trp in the presence of 10 mM ascorbic acid, 5 μM methylene blue, 100 nM catalase and 0.01% Tween 20 in 50 mM sodium phosphate buffer (pH 6.5). 19 μL of above reaction mixture is added to wells of 384 well reaction plate containing […] of various concentrations of test compound or DMSO vehicle and incubated for 20 minutes at room temperature. The TDO enzymatic reaction assay is performed using 1 nM TDO and 350 μM L-Trp in the presence of 10 mM ascorbic acid, 0.4 μM methylene blue, 100 nM catalase and 0.01% Tween 20 in 50 mM sodium phosphate buffer (pH 6.5). 19 μL of above reaction mixture is added to wells of 384 well reaction plate containing 1 μL of various concentrations of test compound or DMSO vehicle and incubated for 70 minutes at room temperature. 16 wells containing all the components of reaction mixture and 5% DMSO serve as high control. 16 well containing all the components except enzyme of reaction mixture and 5% DMSO serves as low control. Both IDO and TDO enzymatic reactions are stopped by addition of […] of 30% TCA and incubated 30 minutes at 50° C. to hydrolyze N-formylkynurenine produced by IDO or TDO to kynurenine. Upon measuring the kynurenine level, the percentage inhibition is calculated at individual concentrations relative to high and low controls. The data is analyzed by using nonlinear regression to generate IC50 values.

[2] = target: T2, Human Indoleamine 2,3-dioxygenase (IDO) (Homo sapiens, UniProt P14902); experiment: Human IDO enzymatic assay (kynurenine level); type: biochemical; details: 6 nM IDO, 10 μM L-Trp; geometric mean; read-out: IDO1 GMean: IC50 (μM) (Biochemical Assay)
T2 construct: His tag (N); made in house; host or cells: E. coli
Procedure: as §1, §2

T2 sequence (P14902 whole entry): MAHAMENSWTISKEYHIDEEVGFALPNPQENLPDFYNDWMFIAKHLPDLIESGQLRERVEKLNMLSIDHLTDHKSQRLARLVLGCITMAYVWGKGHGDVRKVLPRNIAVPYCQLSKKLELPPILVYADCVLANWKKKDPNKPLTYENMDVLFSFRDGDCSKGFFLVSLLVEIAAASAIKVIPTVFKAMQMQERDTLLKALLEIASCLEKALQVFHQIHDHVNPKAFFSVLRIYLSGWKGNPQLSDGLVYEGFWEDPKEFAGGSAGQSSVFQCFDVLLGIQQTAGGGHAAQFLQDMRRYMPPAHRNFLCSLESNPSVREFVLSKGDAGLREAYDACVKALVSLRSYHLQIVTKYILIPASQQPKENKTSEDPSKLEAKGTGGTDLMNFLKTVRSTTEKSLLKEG
T1 sequence (P48775 whole entry): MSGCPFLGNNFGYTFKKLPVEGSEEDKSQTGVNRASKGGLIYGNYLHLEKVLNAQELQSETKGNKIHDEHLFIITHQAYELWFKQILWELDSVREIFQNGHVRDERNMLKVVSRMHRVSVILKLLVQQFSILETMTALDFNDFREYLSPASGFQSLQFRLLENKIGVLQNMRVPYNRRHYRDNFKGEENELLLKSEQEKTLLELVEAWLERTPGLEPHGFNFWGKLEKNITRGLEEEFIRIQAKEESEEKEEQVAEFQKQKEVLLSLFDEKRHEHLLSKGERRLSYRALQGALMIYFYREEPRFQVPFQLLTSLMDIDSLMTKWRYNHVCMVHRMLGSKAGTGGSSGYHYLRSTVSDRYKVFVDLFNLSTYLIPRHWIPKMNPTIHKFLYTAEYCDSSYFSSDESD

Compound | IC50 [1] [µM] | IC50 [2] [µM]
CC(C)(C1CCN(C(=O)NCCCO)CC1)[C@H](O)c1cc(Cl)cc2cn[nH]c12 [Compound P-0665, (S)-4-(1-(5-chloro-1H-indazol-7-yl)-1-hydroxy-2-methylpropan-2-yl)-N-(3-hydroxypropyl) piperidine-1-carboxamide] | 0.0001 to 10 | 0.0001 to 10
O=C(C1CCOCC1)N1CCC(C(F)(F)[C@H](O)c2c3c(cc4cn[nH]c24)CC3)CC1 [Compound P-0618, (R)-(4-(2-(5,6-dihydro-1H-cyclobuta[f]indazol-7-yl)-1,1-difluoro-2-hydroxyethyl)piperidin-1-yl)(tetrahydro-2H-pyran-4-yl)methanone] | 0.0001 to 10 | 0.0001 to 10
O=C(Nc1ccc(F)cc1)N1CCC(C(F)(F)[C@H](O)c2c3c(cc4cn[nH]c24)CC3)CC1 [Compound P-0637, (R)-4-(2-(5,6-dihydro-1H-cyclobuta[f]indazol-7-yl)-1,1-difluoro-2-hydroxyethyl)-N-(4-fluorophenyl) piperidine-1-carboxamide] | 0.0001 to 10 | 0.0001 to 10
CC(C)(C1CCN(C(=O)NCC2CCC2)CC1)[C@H](O)c1cc(Cl)cc2cn[nH]c12 [Compound P-0582, (S)-4-(1-(5-chloro-1H-indazol-7-yl)-1-hydroxy-2-methylpropan-2-yl)-N-(cyclobutylmethyl) piperidine-1-carboxamide] | 0.0001 to 10 | 0.0001 to 10
O=C(Cc1ccc(Cl)c(F)c1)N1CCC(C(F)(F)[C@H](O)c2cc(Cl)cc3cn[nH]c23)CC1 [Compound P-0571, (R)-1-(4-(2-(5-chloro-1H-indazol-7-yl)-1,1-difluoro-2-hydroxyethyl)piperidin-1-yl)-2-(4-chloro-3-fluorophenyl)ethan-1-one] | 0.0001 to 10 | 0.0001 to 10
N#Cc1ccc(NC(=O)N2CCC(C(F)(F)[C@H](O)c3c4c(cc5cn[nH]c35)CC4)CC2)cc1 [Compound P-0638, (R)-N-(4-cyanophenyl)-4-(2-(5,6-dihydro-1H-cyclobuta[f]indazol-7-yl)-1,1-difluoro-2-hydroxyethyl) piperidine-1-carboxamide] | 0.0001 to 10 | 0.0001 to 10
OC(c1ccc(OC(F)(F)F)cc1)c1cccc2cncn12 (stereo not shown) [Compound P-0065, imidazo[1,5-a]pyridin-5-yl(4-(trifluoromethoxy)phenyl)methanol] | 10 to 100 | 0.0001 to 10
COc1ccc(CNC(=O)N2CCC(C(C)(C)[C@H](O)c3cc(Cl)cc4cn[nH]c34)CC2)cn1 [Compound P-0585, (S)-4-(1-(5-chloro-1H-indazol-7-yl)-1-hydroxy-2-methylpropan-2-yl)-N-((6-methoxypyridin-3-yl)methyl)piperidine-1-carboxamide] | 0.0001 to 10 | 0.0001 to 10
CC(C)(C1CCN(C(=O)Nc2ccc(F)cc2)CC1)C(O)c1cc(Cl)cc2[nH]ncc12 (stereo not shown) [Compound P-0660, 4-(1-(6-chloro-1H-indazol-4-yl)-1-hydroxy-2-methylpropan-2-yl)-N-(4-fluorophenyl) piperidine-1-carboxamide] | 0.0001 to 10 | 0.0001 to 10
OC(c1cccc(-n2ccnc2)c1)c1cccc2cncn12 (stereo not shown) [Compound P-0070, (3-(1H-imidazol-1-yl)phenyl)(imidazo[1,5-a]pyridin-5-yl)methanol] | 100 to 200 | 100 to 200
CC(C)(C1CCN(C(=O)NCCN2CCCS2(=O)=O)CC1)[C@H](O)c1cc(Cl)cc2cn[nH]c12 [Compound P-0678, (S)-4-(1-(5-chloro-1H-indazol-7-yl)-1-hydroxy-2-methylpropan-2-yl)-N-(2-(1,1-dioxidoisothiazolidin-2-yl)ethyl)piperidine-1-carboxamide] | 0.0001 to 10 | 0.0001 to 10
CC(C)(C1CCN(C(=O)CC2CC2)CC1)C(O)c1cc(Cl)cc2[nH]ncc12 (stereo not shown) [Compound P-0608, 1-(4-(1-(6-chloro-1H-indazol-4-yl)-1-hydroxy-2-methylpropan-2-yl)piperidin-1-yl)-2-cyclopropylethan-1-one] | 0.0001 to 10 | 0.0001 to 10
CC1(C(O)c2cc(Cl)c(F)c3cn[nH]c23)CC(F)(F)C1 (stereo not shown) [Compound P-0650, (5-chloro-4-fluoro-1H-indazol-7-yl)(3,3-difluoro-1-methylcyclobutyl)methanol] | 0.0001 to 10 | 0.0001 to 10
CC(C)(C)OC(=O)N1CCC(C(C)(C)C(O)c2cc(Cl)cc3[nH]ncc23)CC1 (stereo not shown) [Compound P-0607, tert-butyl 4-(1-(6-chloro-1H-indazol-4-yl)-1-hydroxy-2-methylpropan-2-yl)piperidine-1-carboxylate] | 0.0001 to 10 | 0.0001 to 10
O=C(NC1CCC1)N1CCC(C(F)(F)[C@H](O)c2c3c(cc4cn[nH]c24)CC3)CC1 [Compound P-0629, (R)-N-cyclobutyl-4-(2-(5,6-dihydro-1H-cyclobuta[f]indazol-7-yl)-1,1-difluoro-2-hydroxyethyl) piperidine-1-carboxamide] | 0.0001 to 10 | 0.0001 to 10
COc1ccc(NC(=O)N2CCC(C(C)(C)C(O)c3cc(Cl)cc4cn[nH]c34)CC2)cn1 (stereo not shown) [Compound P-0605, 4-(1-(5-chloro-1H-indazol-7-yl)-1-hydroxy-2-methylpropan-2-yl)-N-(6-methoxypyridin-3-yl)piperidine-1-carboxamide] | 0.0001 to 10 | 0.0001 to 10
CN(C)c1ccc(CNC(=O)N2CCC(C(C)(C)[C@H](O)c3cc(Cl)cc4cn[nH]c34)CC2)cn1 [Compound P-0586, (S)-4-(1-(5-chloro-1H-indazol-7-yl)-1-hydroxy-2-methylpropan-2-yl)-N-((6-(dimethylamino)pyridin-3-yl)methyl)piperidine-1-carboxamide] | 0.0001 to 10 | 0.0001 to 10
CC(C)(C1CCN(C(=O)NCc2ccc(F)cn2)CC1)[C@H](O)c1cc(Cl)cc2cn[nH]c12 [Compound P-0601, (S)-4-(1-(5-chloro-1H-indazol-7-yl)-1-hydroxy-2-methylpropan-2-yl)-N-((5-fluoropyridin-2-yl)methyl) piperidine 1-carboxamide] | 0.0001 to 10 | 0.0001 to 10
CC(C)(C1CCN(C(=O)NCc2cccnc2)CC1)[C@H](O)c1cc(Cl)cc2cn[nH]c12 [Compound P-0679, (S)-4-(1-(5-chloro-1H-indazol-7-yl)-1-hydroxy-2-methylpropan-2-yl)-N-(pyridin-3-ylmethyl)piperidine-1-carboxamide] | 0.0001 to 10 | 0.0001 to 10
CC1(CNC(=O)N2CCC(C(C)(C)[C@H](O)c3cc(Cl)cc4cn[nH]c34)CC2)CC1 [Compound P-0599, (S)-4-(1-(5-chloro-1H-indazol-7-yl)-1-hydroxy-2-methylpropan-2-yl)-N-((1-methylcyclopropyl)methyl)piperidine-1-carboxamide] | 0.0001 to 10 | 0.0001 to 10
CNC(=O)N1CCC(C(F)(F)C(O)c2cc(Cl)cc3[nH]ncc23)CC1 (stereo not shown) [Compound P-0578, 4-(2-(6-chloro-1H-indazol-4-yl)-1,1-difluoro-2-hydroxyethyl)-N-methylpiperidine-1-carboxamide] | 0.0001 to 10 | 0.0001 to 10
CC(C)(C1CCN(C(=O)CN2CCS(=O)(=O)CC2)CC1)[C@H](O)c1cc(Cl)cc2cn[nH]c12 [Compound P-0500, (S)-1-(4-(1-(5-chloro-1H-indazol-7-yl)-1-hydroxy-2-methylpropan-2-yl)piperidin-1-yl)-2-(1,1-dioxidothiomorpholino) ethan-1-one] |  | 0.0001 to 10
